# Results published in US12195427B2, “MASP-2 inhibitors and methods of use” (priority 2018, dated 2025).
# Tests used:
# MASP-2 (CCP1-CCP2-SP) = MASP-2 (CCP1-CCP2-SP) (Homo sapiens (Human), UniProt O00187); test: Enzymatic Assay for MASP-2 (fluorogenic substrate); assay type: biochemical
# MASP-2 CCP2-SP = MASP-2 CCP2-SP (Homo sapiens (Human), UniProt O00187); test: MASP-2 co-crystallization, X-ray crystallography and structure analysis (H-bonds, van der Waals contacts); design: van der Waals contact distance, MASP-2 HIS 483 atom CD2 / van der Waals contact distance, MASP-2 HIS 483 atom NE2 / van der Waals contact distance, SER 654 C to compound atom / van der Waals contact distance, SER 654 O to compound atom / van der Waals contact distance, TRP 655 C to compound atom / van der Waals contact distance, MASP-2 GLY 528 atom CA / van der Waals contact distance TRP 655 atom CZ3 / van der Waals contact distance TRP 655 atom N / van der Waals contact distance TRP 655 atom CE3 / van der Waals contact distance GLY 656 atom C / van der Waals contact distance GLY 656 atom CA / van der Waals contact distance GLY 656 atom O / van der Waals contact distance, MASP-2 TYR 607 atom CD1 / van der Waals contact distance, MASP-2 PRO 606 atom O / d(C3,CA1) / d(CA1,N1)2 / d(H4,O1) / d(H4,O2) / d(O1,O2) / d(CA1,O2) / d(CA6,O1) / d(CA6,O2) / d(CA1,C5) / d(O2,H3) / d(N2,C2) / d(CA5,N2) / d(N2,C4) / d(N2,C6) / d(N2,CA3) / d(N2,O3) / d(O4,H2): unit not given beside the values; settings: for H-bond distance to MASP-2 GLY 656 atom O: GLY 656 O; for H-bond distance to MASP-2 SER 628 atom O: SER 628 O; for H-bond distance to MASP-2 SER 654 atom O: SER 654 O; for H-bond distance to MASP-2 SER 657 atom O: SER 657 O; for van der Waals contact distance GLY 656 atom C: MASP-2 GLY 656 C; for van der Waals contact distance SER 657 atom C: MASP-2 SER 657 C, columns c12-c13 (inferred);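 as to Ligand-pharmacophore element distance, pharmacophore element C2: distance from averaged pharmacophore element to bound ligand; missing value means element absent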;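 as to Ligand-pharmacophore element distance, pharmacophore element C3: distance from averaged pharmacophore element to bound ligand; missing value means element absent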;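 as to Ligand-pharmacophore element distance, pharmacophore element C4: distance from averaged pharmacophore element to bound ligand; missing value means element absent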;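 as to Ligand-pharmacophore element distance, pharmacophore element C5: distance from averaged pharmacophore element to bound ligand; missing value means element absent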
# Procedure, shortened: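 First, CCP2-SP constructs with or without a 6His tag are produced in E. coli. Crystals are then soaked once or twice with inhibitor, cryoprotected in 20% glycerol or frozen directly, and diffracted at synchrotron beamlines. Phasing uses molecular replacement with parts of 1Q3X.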
# human α-thrombin = human α-thrombin (Homo sapiens (Human), UniProt P00734); test: Enzymatic Assay for Thrombin (Boc-VPR-AMC); assay type: biochemical
# [1] = Table A2-9 second part, ARG 630, AA atoms N, NE, NH1
# [2] = Table A5-1 pharmacophore: distance between elements, S2/S1 region
# [3] = Table A5-2 pharmacophore distance, S3/S4 region
# [4] = Table A7-1, between pharmacophore elements of the bound compound
# [5] = Table A8-6, nearest protein atom in cell to the left
# Sequence of MASP-2 CCP2-SP (O00187 445-686): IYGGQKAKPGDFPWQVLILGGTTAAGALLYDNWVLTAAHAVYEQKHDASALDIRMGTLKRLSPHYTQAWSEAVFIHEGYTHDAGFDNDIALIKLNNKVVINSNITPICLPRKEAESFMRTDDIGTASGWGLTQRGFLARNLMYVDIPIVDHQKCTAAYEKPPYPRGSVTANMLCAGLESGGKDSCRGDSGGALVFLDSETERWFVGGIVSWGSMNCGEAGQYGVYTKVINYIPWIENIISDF
# Sequence of MASP-2 CCP2-SP (O00187 364-432 partner): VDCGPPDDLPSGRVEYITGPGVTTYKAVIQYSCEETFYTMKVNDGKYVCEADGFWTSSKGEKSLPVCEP
# Sequence of MASP-2 (CCP1-CCP2-SP) (O00187 445-686): as the sequence (O00187 445-686) above
smiles,measurement,setting,value
C[C@H](NC(=O)[C@H](N)CCc1cccc(Cl)c1)C(=O)NCc1ccc(C(=N)N)cc1 [compound 1081],Ki,MASP-2 (CCP1-CCP2-SP),< 500 nM
same,H-bond distance to MASP-2 GLY 656 atom O,MASP-2 CCP2-SP; Table A1 (H-Bonds),2.92
same,H-bond distance to MASP-2 SER 628 atom O,MASP-2 CCP2-SP; Table A1 (H-Bonds),2.86
same,H-bond distance to MASP-2 SER 654 atom O,MASP-2 CCP2-SP; Table A1 (H-Bonds),2.81
same,H-bond distance to MASP-2 SER 657 atom O,MASP-2 CCP2-SP; Table A1 (H-Bonds),2.69
same,"van der Waals contact distance, MASP-2 HIS 483 atom CD2",MASP-2 CCP2-SP; Table A2-1,3.74
same,"van der Waals contact distance, MASP-2 PHE 529 atom CD1",MASP-2 CCP2-SP; Table A2-3,3.38
same,"van der Waals contact distance, MASP-2 amino acid atom to compound atom",MASP-2 CCP2-SP; Table A2-7 continued: CYS 629 (CA),3.8
same,"van der Waals contact distance, MASP-2 amino acid atom to compound atom","MASP-2 CCP2-SP; Table A2-9, ARG 630, AA atoms CG, CZ",3.76
same,"van der Waals contact distance, MASP-2 amino acid atom to compound atom",MASP-2 CCP2-SP; [1],3.81
same,"van der Waals contact distance, VAL 653 CG1 to compound atom",MASP-2 CCP2-SP; Table A2-11,3.84
same,van der Waals contact distance GLY 656 atom C,MASP-2 CCP2-SP; Table A2-13,3.27
same,van der Waals contact distance TRP 655 atom N,"MASP-2 CCP2-SP; Table A2-13, MASP-2 TRP 655 N",3.83
same,van der Waals contact distance TRP 655 atom O,"MASP-2 CCP2-SP; Table A2-13, MASP-2 TRP 655 O",3.8
same,van der Waals contact distance GLY 656 atom O,"MASP-2 CCP2-SP; Table A2-14, MASP-2 GLY 656 O",3.81
same,van der Waals contact distance SER 657 atom C,MASP-2 CCP2-SP; Table A2-14,3.62
same,"Ligand-pharmacophore element distance, pharmacophore element C2","MASP-2 CCP2-SP; Table A4-1, element C2",0
same,"Ligand-pharmacophore element distance, pharmacophore element C3","MASP-2 CCP2-SP; Table A4-1, element C3",0
same,"Ligand-pharmacophore element distance, pharmacophore element C4","MASP-2 CCP2-SP; Table A4-1, element C4",1.99
same,"Ligand-pharmacophore element distance, pharmacophore element C5","MASP-2 CCP2-SP; Table A4-1, element C5",0
same,"Ligand-pharmacophore element distance, pharmacophore element C6","MASP-2 CCP2-SP; Table A4-1, element C6",0
same,"Ligand-pharmacophore element distance, pharmacophore element C7","MASP-2 CCP2-SP; Table A4-1, element C7",0
same,"Ligand-pharmacophore element distance, pharmacophore element CA1","MASP-2 CCP2-SP; Table A4-1, element CA1",0.48
same,"Ligand-pharmacophore element distance, pharmacophore element CA2","MASP-2 CCP2-SP; Table A4-1, element CA2",0.76
same,"Ligand-pharmacophore element distance, pharmacophore element CA3","MASP-2 CCP2-SP; Table A4-1, element CA3",0
same,"Ligand-pharmacophore element distance, pharmacophore element CA4","MASP-2 CCP2-SP; Table A4-1, element CA4",0
same,"Ligand-pharmacophore element distance, pharmacophore element CA5","MASP-2 CCP2-SP; Table A4-1, element CA5",0
same,"Ligand-pharmacophore element distance, pharmacophore element CA6","MASP-2 CCP2-SP; Table A4-1, element CA6",0
same,"d(CA1,N1)",MASP-2 CCP2-SP; [2],3.62
same,"d(CA1,O1)",MASP-2 CCP2-SP; [2],4.57
same,"d(CA1,O2)",MASP-2 CCP2-SP; [2],4.27
same,"d(H4,O1)",MASP-2 CCP2-SP; [2],5.10
same,"d(H4,O2)",MASP-2 CCP2-SP; [2],4.46
same,"d(O1,O2)",MASP-2 CCP2-SP; [2],3.45
same,"d(N2,C4)",MASP-2 CCP2-SP; [3],7.56
same,"d(N2,C4)4",MASP-2 CCP2-SP; [3],7.56
same,"d(N2,CA2)",MASP-2 CCP2-SP; [3],6.05
same,"d(O2,H3)",MASP-2 CCP2-SP; [3],5.78
same,"d(O2,N2)",MASP-2 CCP2-SP; [3],2.76
same,"a(CA1, O1, O2)",MASP-2 CCP2-SP; Table A6-1 pharmacophore angle,108.25
same,"a(O1, O2, H4)",MASP-2 CCP2-SP; Table A6-1 pharmacophore angle,138.44
same,"A(N1, CA1, O1) a)","MASP-2 CCP2-SP; Table A6-1 pharmacophore angle, all compounds with protonatable center N1 except Methyl-amino-pyridine",163.55
same,"a(O1, O2, H3)",MASP-2 CCP2-SP; Table A6-2 pharmacophore angle,153.00
same,"a(O1, O2, N2)",MASP-2 CCP2-SP; Table A6-2 pharmacophore angle,139.53
same,"a(O2, N2, C4)",MASP-2 CCP2-SP; Table A6-2 pharmacophore angle,161.57
same,"a(O2, N2, C4) 2",MASP-2 CCP2-SP; Table A6-2 pharmacophore angle,119.80
same,"a(O2, N2, CA2)",MASP-2 CCP2-SP; Table A6-2 pharmacophore angle,153.98
same,"Pharmacophore torsion angle a(H4, O1, O2, H3)",MASP-2 CCP2-SP; [4],36.36
same,"Pharmacophore torsion angle a(H4, O1, O2, N2)",MASP-2 CCP2-SP; [4],121.47
same,"Pharmacophore torsion angle a(N1, CA1, O2, H4)",MASP-2 CCP2-SP; [4],−125.05
same,"Pharmacophore torsion angle a(O1, H4, O2, CA1)",MASP-2 CCP2-SP; [4],−62.03
same,"Pharmacophore torsion angle a(O1, O2, N2, CA2)","MASP-2 CCP2-SP; Table A7-2, between pharmacophore elements of the bound compound",142.86
same,Pharmacophore protein distance to MET_658 (first MET_658 column),"MASP-2 CCP2-SP; Table A8-6, 6th residue column, nearest protein atom in cell to the left",3.11
same,Pharmacophore protein distance to MET_658 (second MET_658 column),"MASP-2 CCP2-SP; Table A8-6, 9th residue column, nearest protein atom in cell to the left",3.70
same,Pharmacophore protein distance to GLY_528,MASP-2 CCP2-SP; [5],3.22
same,Pharmacophore protein distance to PHE_529,MASP-2 CCP2-SP; [5],3.23
same,Pharmacophore protein distance to PRO_608,MASP-2 CCP2-SP; [5],4.72
same,Pharmacophore protein distance to SER_611,MASP-2 CCP2-SP; [5],2.66
same,Pharmacophore protein distance to TRP_655,"MASP-2 CCP2-SP; Table A8-6, pharmacophore elements C6, CA3, O3, H1, nearest protein atom in cell to the left",3.69
same,Ki,human α-thrombin,< 500 nM
C[C@H](NC(=O)[C@H]1Cc2c([nH]c3ccccc23)CN1)C(=O)NCc1ccc(C(=N)N)cc1 [compound 1097],Ki,MASP-2 (CCP1-CCP2-SP),< 500 nM
same,H-bond distance to MASP-2 ASP 627 atom OD2,"MASP-2 CCP2-SP; Table A1 (H-Bonds), ASP 627 OD2",2.74
same,H-bond distance to MASP-2 GLY 656 atom N,"MASP-2 CCP2-SP; Table A1 (H-Bonds), GLY 656 N",3.12
same,H-bond distance to MASP-2 GLY 656 atom O,MASP-2 CCP2-SP; Table A1 (H-Bonds),2.98
same,H-bond distance to MASP-2 SER 628 atom O,MASP-2 CCP2-SP; Table A1 (H-Bonds),3.03
same,H-bond distance to MASP-2 SER 654 atom O,MASP-2 CCP2-SP; Table A1 (H-Bonds),2.81
same,H-bond distance to MASP-2 SER 657 atom O,MASP-2 CCP2-SP; Table A1 (H-Bonds),2.74
same,"van der Waals contact distance, MASP-2 HIS 483 atom CD2",MASP-2 CCP2-SP; Table A2-1,3.63
same,"van der Waals contact distance, MASP-2 HIS 483 atom NE2",MASP-2 CCP2-SP; Table A2-1,3.53
same,"van der Waals contact distance, MASP-2 PRO 606 atom C",MASP-2 CCP2-SP; Table A2-4,3.74
same,"van der Waals contact distance, MASP-2 PRO 606 atom CB",MASP-2 CCP2-SP; Table A2-4,3.84
same,"van der Waals contact distance, MASP-2 PRO 606 atom CG",MASP-2 CCP2-SP; Table A2-4,3.82
same,"van der Waals contact distance, MASP-2 PRO 606 atom O",MASP-2 CCP2-SP; Table A2-4,3.33
same,"van der Waals contact distance, MASP-2 TYR 607 atom CA",MASP-2 CCP2-SP; Table A2-4,3.79
same,"van der Waals contact distance, MASP-2 amino acid atom to compound atom",MASP-2 CCP2-SP; [1],3.71
same,"van der Waals contact distance, SER 654 C to compound atom",MASP-2 CCP2-SP; Table A2-11,3.73
same,van der Waals contact distance GLY 656 atom C,MASP-2 CCP2-SP; Table A2-13,3.46
same,van der Waals contact distance SER 657 atom C,MASP-2 CCP2-SP; Table A2-14,3.52
same,Ki,human α-thrombin,< 500 nM
